{"source": "paper PMC6054628", "key": {"[1]": {"assay": "Head-to-tail native chemical ligation in two-module microfluidic flow: SEAon peptide amide rearranged to SEAE thioester (pH 1, TCEP, 60 min, 90 or 65 C), then MPAA (0.4 M)/Na2HPO4 (0.2 M) pH 7.3 cyclisation onto N-terminal Cys, 4 min", "conditions": "30-membered ring, water (phosphate buffer, MPAA, TCEP; decane segmented carrier), 0.6 mM, 37.0 °C, 0.067 h, 2 steps, scale: %"}, "[2]": {"assay": "Head-to-tail native chemical ligation in two-module microfluidic flow: SEAon peptide amide rearranged to SEAE thioester (pH 1, TCEP, 60 min, 90 or 65 C), then MPAA (0.4 M)/Na2HPO4 (0.2 M) pH 7.3 cyclisation onto N-terminal Cys", "conditions": "water (phosphate buffer, MPAA, TCEP; decane segmented carrier; 6 M Gn.HCl for 4l-p), 0.6 mM, 37.0 °C, 2 steps"}, "[3]": {"conditions": "the molecule shown is the open-chain precursor, 54-membered ring, 0.25 h"}}, "data": [{"compound": "CC[C@H](C)[C@@H]1NC(=O)CNC(=O)[C@H](Cc2c[nH]cn2)NC(=O)[C@H](C(C)C)NC(=O)CNC(=O)[C@H](CCC(=O)O)NC(=O)[C@H](CCCCN)NC(=O)[C@H](CC(C)C)NC(=O)[C@H]([C@@H](C)CC)NC(=O)[C@H](CS)NC1=O", "note": "[H-CILKEGVHGI-SEAon (via SEAE thioester)]", "values": [{"measurement": "ring closure, conversion by HPLC", "setting": "[1]; from CC[C@H](C)[C@H](NC(=O)[C@@H](N)CS)C(=O)N[C@@H](CC(C)C)C(=O)N[C@@H](CCCCN)C(=O)N[C@@H](CCC(=O)O)C(=O)NCC(=O)N[C@H](C(=O)N[C@@H](Cc1c[nH]cn1)C(=O)NCC(=O)N[C@H](C(=O)SCCNCCS)[C@@H](C)CC)C(C)C", "value": 96}, {"measurement": "ring closure, yield over several steps", "setting": "[2]; from CC[C@H](C)[C@H](NC(=O)[C@@H](N)CS)C(=O)N[C@@H](CC(C)C)C(=O)N[C@@H](CCCCN)C(=O)N[C@@H](CCC(=O)O)C(=O)NCC(=O)N[C@H](C(=O)N[C@@H](Cc1c[nH]cn1)C(=O)NCC(=O)N[C@H](C(=O)SCCNCCS)[C@@H](C)CC)C(C)C, 30-membered ring, 0.067 h", "value": 51, "unit": "%"}]}, {"compound": "H-CRCLCRRGVCRCICTRGF-SEAon (via SEAE thioester)", "values": [{"measurement": "ring closure, yield over several steps", "setting": "[2]; [3]", "value": 23, "unit": "%"}]}, {"compound": "CC[C@H](C)[C@@H]1NC(=O)[C@H](CS)NC(=O)[C@H](C(C)C)NC(=O)CNC(=O)[C@H](Cc2c[nH]cn2)NC(=O)[C@H](C(C)C)NC(=O)[C@@H]2CCCN2C(=O)CNC(=O)[C@H](CC(=O)O)NC(=O)[C@H](CC(C)C)NC1=O", "note": "[H-CILDGPVHGV-SEAon (via SEAE thioester)]", "values": [{"measurement": "ring closure, conversion by HPLC", "setting": "[1]; from CC[C@H](C)[C@H](NC(=O)[C@@H](N)CS)C(=O)N[C@@H](CC(C)C)C(=O)N[C@@H](CC(=O)O)C(=O)NCC(=O)N1CCC[C@H]1C(=O)N[C@H](C(=O)N[C@@H](Cc1c[nH]cn1)C(=O)NCC(=O)N[C@H](C(=O)SCCNCCS)C(C)C)C(C)C", "value": 43}, {"measurement": "ring closure, yield over several steps", "setting": "[2]; from CC[C@H](C)[C@H](NC(=O)[C@@H](N)CS)C(=O)N[C@@H](CC(C)C)C(=O)N[C@@H](CC(=O)O)C(=O)NCC(=O)N1CCC[C@H]1C(=O)N[C@H](C(=O)N[C@@H](Cc1c[nH]cn1)C(=O)NCC(=O)N[C@H](C(=O)SCCNCCS)C(C)C)C(C)C, 30-membered ring, 0.067 h", "value": 37, "unit": "%"}]}, {"compound": "CC[C@H](C)[C@@H]1NC(=O)[C@H](CS)NC(=O)[C@H](C(C)C)NC(=O)CNC(=O)[C@H](Cc2c[nH]cn2)NC(=O)[C@H](C(C)C)NC(=O)[C@@H]2CCCN2C(=O)[C@H](CCC(=O)O)NC(=O)[C@H](CCCCN)NC(=O)[C@H](CC(C)C)NC1=O", "note": "[H-CILKEPVHGV-SEAon (via SEAE thioester)]", "values": [{"measurement": "ring closure, conversion by HPLC", "setting": "[1]; from CC[C@H](C)[C@H](NC(=O)[C@@H](N)CS)C(=O)N[C@@H](CC(C)C)C(=O)N[C@@H](CCCCN)C(=O)N[C@@H](CCC(=O)O)C(=O)N1CCC[C@H]1C(=O)N[C@H](C(=O)N[C@@H](Cc1c[nH]cn1)C(=O)NCC(=O)N[C@H](C(=O)SCCNCCS)C(C)C)C(C)C", "value": 56}, {"measurement": "ring closure, yield over several steps", "setting": "[2]; from CC[C@H](C)[C@H](NC(=O)[C@@H](N)CS)C(=O)N[C@@H](CC(C)C)C(=O)N[C@@H](CCCCN)C(=O)N[C@@H](CCC(=O)O)C(=O)N1CCC[C@H]1C(=O)N[C@H](C(=O)N[C@@H](Cc1c[nH]cn1)C(=O)NCC(=O)N[C@H](C(=O)SCCNCCS)C(C)C)C(C)C, 30-membered ring, 0.067 h", "value": 46, "unit": "%"}]}, {"compound": "H-CTRGFCRCLCRRGVCRCI-SEAon (via SEAE thioester)", "values": [{"measurement": "ring closure, yield over several steps", "setting": "[2]; [3]", "value": 34, "unit": "%"}]}, {"compound": "CC[C@H](C)[C@@H]1NC(=O)[C@H](CS)NC(=O)[C@H](CC(C)C)NC(=O)CNC(=O)[C@H](Cc2c[nH]cn2)NC(=O)[C@H](C(C)C)NC(=O)[C@@H]2CCCN2C(=O)CNC(=O)[C@H](CC(N)=O)NC(=O)[C@H](CC(C)C)NC1=O", "note": "[H-CILNGPVHGL-SEAon (via SEAE thioester)]", "values": [{"measurement": "ring closure, conversion by HPLC", "setting": "[1]; from CC[C@H](C)[C@H](NC(=O)[C@@H](N)CS)C(=O)N[C@@H](CC(C)C)C(=O)N[C@@H](CC(N)=O)C(=O)NCC(=O)N1CCC[C@H]1C(=O)N[C@H](C(=O)N[C@@H](Cc1c[nH]cn1)C(=O)NCC(=O)N[C@@H](CC(C)C)C(=O)SCCNCCS)C(C)C", "value": 85}, {"measurement": "ring closure, yield over several steps", "setting": "[2]; from CC[C@H](C)[C@H](NC(=O)[C@@H](N)CS)C(=O)N[C@@H](CC(C)C)C(=O)N[C@@H](CC(N)=O)C(=O)NCC(=O)N1CCC[C@H]1C(=O)N[C@H](C(=O)N[C@@H](Cc1c[nH]cn1)C(=O)NCC(=O)N[C@@H](CC(C)C)C(=O)SCCNCCS)C(C)C, 30-membered ring, 0.067 h", "value": 80, "unit": "%"}]}, {"compound": "H-CRAIATRGFARALARRGV-SEAon (via SEAE thioester)", "values": [{"measurement": "ring closure, yield over several steps", "setting": "[2]; the molecule shown is the open-chain precursor, 54-membered ring, 0.067 h", "value": 37, "unit": "%"}]}, {"compound": "CC[C@H](C)[C@@H]1NC(=O)[C@H](CS)NC(=O)[C@H]([C@@H](C)O)NC(=O)CNC(=O)[C@H](Cc2c[nH]cn2)NC(=O)[C@H](C(C)C)NC(=O)CNC(=O)[C@H](CCC(=O)O)NC(=O)[C@H](CCCCN)NC(=O)[C@H](CC(C)C)NC1=O", "note": "[H-CILKEGVHGT-SEAon (via SEAE thioester)]", "values": [{"measurement": "ring closure, conversion by HPLC", "setting": "[1]; from CC[C@H](C)[C@H](NC(=O)[C@@H](N)CS)C(=O)N[C@@H](CC(C)C)C(=O)N[C@@H](CCCCN)C(=O)N[C@@H](CCC(=O)O)C(=O)NCC(=O)N[C@H](C(=O)N[C@@H](Cc1c[nH]cn1)C(=O)NCC(=O)N[C@H](C(=O)SCCNCCS)[C@@H](C)O)C(C)C", "value": 73}, {"measurement": "ring closure, yield over several steps", "setting": "[2]; from CC[C@H](C)[C@H](NC(=O)[C@@H](N)CS)C(=O)N[C@@H](CC(C)C)C(=O)N[C@@H](CCCCN)C(=O)N[C@@H](CCC(=O)O)C(=O)NCC(=O)N[C@H](C(=O)N[C@@H](Cc1c[nH]cn1)C(=O)NCC(=O)N[C@H](C(=O)SCCNCCS)[C@@H](C)O)C(C)C, 30-membered ring, 0.067 h", "value": 49, "unit": "%"}]}, {"compound": "CC[C@H](C)[C@@H]1NC(=O)[C@H](CS)NC(=O)[C@H](C(C)C)NC(=O)CNC(=O)[C@H](Cc2c[nH]cn2)NC(=O)[C@H](C(C)C)NC(=O)[C@@H]2CCCN2C(=O)CNC(=O)[C@H](CC(N)=O)NC(=O)[C@H](CC(C)C)NC1=O", "note": "[H-CILNGPVHGV-SEAon (via SEAE thioester)]", "values": [{"measurement": "ring closure, conversion by HPLC", "setting": "[1]; from CC[C@H](C)[C@H](NC(=O)[C@@H](N)CS)C(=O)N[C@@H](CC(C)C)C(=O)N[C@@H](CC(N)=O)C(=O)NCC(=O)N1CCC[C@H]1C(=O)N[C@H](C(=O)N[C@@H](Cc1c[nH]cn1)C(=O)NCC(=O)N[C@H](C(=O)SCCNCCS)C(C)C)C(C)C", "value": 63}, {"measurement": "ring closure, yield over several steps", "setting": "[2]; from CC[C@H](C)[C@H](NC(=O)[C@@H](N)CS)C(=O)N[C@@H](CC(C)C)C(=O)N[C@@H](CC(N)=O)C(=O)NCC(=O)N1CCC[C@H]1C(=O)N[C@H](C(=O)N[C@@H](Cc1c[nH]cn1)C(=O)NCC(=O)N[C@H](C(=O)SCCNCCS)C(C)C)C(C)C, 30-membered ring, 0.067 h", "value": 66, "unit": "%"}]}, {"compound": "CC[C@H](C)[C@@H]1NC(=O)[C@H](CS)NC(=O)[C@H](CC(C)C)NC(=O)CNC(=O)[C@H](Cc2c[nH]cn2)NC(=O)[C@H](C(C)C)NC(=O)[C@@H]2CCCN2C(=O)CNC(=O)[C@H](CC(=O)O)NC(=O)[C@H](CC(C)C)NC1=O", "note": "[H-CILDGPVHGL-SEAon (via SEAE thioester)]", "values": [{"measurement": "ring closure, conversion by HPLC", "setting": "[1]; from CC[C@H](C)[C@H](NC(=O)[C@@H](N)CS)C(=O)N[C@@H](CC(C)C)C(=O)N[C@@H](CC(=O)O)C(=O)NCC(=O)N1CCC[C@H]1C(=O)N[C@H](C(=O)N[C@@H](Cc1c[nH]cn1)C(=O)NCC(=O)N[C@@H](CC(C)C)C(=O)SCCNCCS)C(C)C", "value": 80}, {"measurement": "ring closure, yield over several steps", "setting": "[2]; from CC[C@H](C)[C@H](NC(=O)[C@@H](N)CS)C(=O)N[C@@H](CC(C)C)C(=O)N[C@@H](CC(=O)O)C(=O)NCC(=O)N1CCC[C@H]1C(=O)N[C@H](C(=O)N[C@@H](Cc1c[nH]cn1)C(=O)NCC(=O)N[C@@H](CC(C)C)C(=O)SCCNCCS)C(C)C, 30-membered ring, 0.067 h", "value": 64, "unit": "%"}]}, {"compound": "H-CRCICTRGFCRCLCRRGV-SEAon (via SEAE thioester)", "values": [{"measurement": "ring closure, yield over several steps", "setting": "[2]; [3]", "value": 29, "unit": "%"}]}, {"compound": "H-CQPWSSMIPHEHSFLPSSYRGKDLQENY-SEAon (via SEAE thioester)", "values": [{"measurement": "ring closure, yield over several steps", "setting": "[2]; the molecule shown is the open-chain precursor, 84-membered ring, 0.25 h", "value": 41, "unit": "%"}]}]}
